Measured values published in patent publication US12606570B2, “Deuterated compounds and imaging agents for imaging huntingtin protein” (CHDI Foundation, Inc., priority 2021, dated 2026).

Molecular target: T1, Exon1-Q46 protein aggregates (MBP-HTT(1-89)Q46-His(6×)) (Homo sapiens, UniProt P42858, INS38QQQQQQQQQQQQQQQQQQQQQQQQQ)
T1 construct: MBP-HTT(1-89)Q46-His(6×); MBP (N, cleaved yes); His(6×) (C); made in house
Test: Exon1-Q46 radioligand binding assay (RBA)
Details: displacement of 0.3 nM [3H3-methyl]-5-((5-methoxypyridin-2-yl)methoxy)-2-(pyrazin-2-yl)benzo[d]oxazole; 1 μM Exon1-Q46 aggregates; read-out: Potency Range
Protocol: Exon1-Q46 Radioligand Binding Assay
For radioligand binding assays (RBA), MBP-HTT(1-89)Q46-His(6×) (“Exon1-Q46”) protein was generated based on a previous publication (Scherzinger et al. Cell, Vol. 90, 549-558, Aug. 8, 1997). For experiments, 30 μM MBP-Exon1-Q46 was incubated with 150 μg/mL thrombin in assay buffer (150 mM NaCl, 50 mM Tris pH 8.0) and 2 mM CaCl2 for 16 hours at 37° C. Aggregated Exon1-Q46 was pelleted by centrifugation for 5 minutes at 13,000 rpm in a bench top centrifuge and re-dissolved in the same volume of assay buffer. Test compounds were prepared by titration in DMSO at 11 concentrations from 63 μM to 2 nM. For the RBA, Exon1-Q46 protein aggregates and test compounds were pre-incubated in assay buffer for 20 minutes at room temperature, in 100 μL/well in a 96-well plate (pp, round bottom). Then, ligand was added in 50 µL/well and incubated for 60 minutes at 37° C. Final assay concentrations were […] test compound, 1 μM Exon1-Q46 protein (equivalent monomer concentration), and 0.3 nM ligand [^3H3-methyl]-5-((5-methoxypyridin-2-yl)methoxy)-2-(pyrazin-2-yl)benzo[d]oxazole. Samples were transferred onto GF/B filter plates and washed 2× with 200 μL PBS using a Filtermate Harvester. After drying filter plates for 1 hour at 55° C., the back of the plates were sealed with foil and 30 μL/well scintillation fluid (Packard MicroScint 40) added, incubated for 15 minutes in the dark, and counted in a MicroBeta reader. For analysis, replicate data from independent assay plates were normalized towards 0% and 100% inhibition using control wells of vehicle (0% inhibition) and […] unlabelled [^3H3-methyl]-5-((5-methoxypyridin-2-yl)methoxy)-2-(pyrazin-2-yl)benzo[d]oxazole (100% inhibition). IC50 values were determined with a sigmoidal inhibition model with four variables (top, bottom, slope, IC50) in a global fit using the normalized replicate data.
The results for various example compounds were as provided in the table below (+++<100 nM; ++100-500 nM; +>500 nM; ND: not determined): […]

T1 sequence (P42858 with tags, fused parts or gaps with the stated changes limits assumed): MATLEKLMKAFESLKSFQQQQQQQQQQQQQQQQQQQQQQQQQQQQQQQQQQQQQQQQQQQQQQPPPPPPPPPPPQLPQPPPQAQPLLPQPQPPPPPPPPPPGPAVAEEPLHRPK

Structure (SMILES) | IC50 [nM]
COc1ccc(COc2cnc3oc(-c4cc(C)ncn4)nc3c2)nc1 [Compound 4-1, 4-{6-[(5-Methoxypyridin-2-yl)methoxy]-[1,3]oxazolo[5,4-b]pyridin-2-yl}-6-methylpyrimidine] | < 100
[2H]C([2H])(F)C([2H])([2H])Oc1ccc(COc2cnc3oc(-c4cc(C)ncn4)nc3c2)nc1 [Compound 1-1, 6-((5-(2-Fluoroethoxy-1,1,2,2-d4)pyridin-2-yl)methoxy)-2-(6-methyl-pyrimidin-4-yl)oxazolo[5,4-b]pyridine] | < 100
COc1ccc(COc2cnc3oc(-c4ccnc(C)n4)nc3c2)nc1 [Compound 2-1] | < 100
Cc1ccc(S(=O)(=O)OCCOc2ccc(COc3cnc4oc(-c5cc(C)ncn5)nc4c3)nc2)cc1 [Compound 1-2, 2-((6-(((2-(6-Methylpyrimidin-4-yl)oxazolo[5,4-b]pyridin-6-yl)oxy)-methyl)pyridin-3-yl)oxy)ethyl 4-methylbenzenesulfonate] | < 100
C=CCOc1ccc(COc2cnc3oc(-c4cc(C)ncn4)nc3c2)nc1 [Compound 5-2, 6-((5-(Allyloxy)pyridin-2-yl)methoxy)-2-(6-methylpyrimidin-4-yl) oxazolo[5,4-b]pyridine] | < 100
COc1cnc(COc2cnc3oc(-c4cc(C)ncn4)nc3c2)c(F)c1 [Compound 1-3, 6-((3-Fluoro-5-methoxypyridin-2-yl)methoxy)-2-(6-methylpyrimidin-4-yl)oxazolo[5,4-b]pyridine] | < 100
Cc1cc(-c2nc3cc(OCc4ccc(OCCF)cn4)cnc3o2)ncn1 [Compound 5-1, 6-((5-(2-Fluoroethoxy)pyridin-2-yl)methoxy)-2-(6-methylpyrimidin-4-yl) oxazolo[5,4-b]pyridine] | < 100
Cc1cc(-c2nc3cc(OCc4ccc(OCF)cn4)cnc3o2)ncn1 [Compound 5-3, 6-((5-(Fluoromethoxy)pyridin-2-yl)methoxy)-2-(6-methylpyrimidin-4-yl) oxazolo[5,4-b]pyridine] | < 100
COc1ccc(COc2cnc3oc(-c4cc(OCCF)ncn4)nc3c2)nc1 [Compound 3-1, 4-(2-Fluoroethoxy)-6-{6-[(5-methoxypyridin-2-yl)methoxy]-[1,3]oxazolo[5,4-b]pyridin-2-yl}pyrimidine] | < 100
